# Laboratory results taken from patent publication US7947684B2, “1-aroyl-piperidinyl benzamidines” (Aventis Pharmaceuticals Inc., priority 2000, dated 2011).
# Where a name gives a salt, the structure may show the parent alone.
# Tests used:
# Factor Xa = Factor Xa (Homo sapiens, UniProt P00742); experiment: Enzyme assay, purified factor Xa, peptide-p-nitroanilide substrate; type: biochemical; conditions: apparent Ki from IC50 by Cheng-Prusoff, room temperature, 1 nM enzyme
# Procedure: (§1) All enzyme assays are carried out at room temperature in 96-well microtiter plates using a final enzyme concentration of 1 nM. The concentrations of factor Xa and thrombin are determined by active site titration and the concentrations of all other enzymes are based on the protein concentration supplied by the manufacturer. Compounds according to the invention are dissolved in DMSO, diluted with their respective buffers and assayed at a maximal final DMSO concentration of 1.25%. Compound dilutions are added to wells containing buffer and enzyme and pre-equilibrated for between 5 and 30 minutes. The enzyme reactions are initiated by the addition of substrate and the color developed from the hydrolysis of the peptide-p-nitroanilide substrates is monitored continuously for 5 minutes at 405 nm on a Vmax microplate reader (Molecular Devices). Under these conditions, less than 10% of the substrate is utilized in all assays. […] The apparent Ki values are then determined according to the Cheng-Prusoff equation (IC50=Ki[1+[S]/Km]) assuming competitive inhibition kinetics.
# [1] = target: human lung tryptase or recombinant human β tryptase; experiment: Tryptase inhibition activity, S2366 substrate; type: biochemical; conditions: room temperature, 0.5 mM substrate
# Procedure: as §1
# Tryptase inhibition activity is confirmed using either isolated human lung tryptase or recombinant human β tryptase expressed in yeast cells. Essentially equivalent results are obtained using isolated native enzyme or the expressed enzyme. […]
# Chain of Factor Xa (P00742 235-488 limits assumed): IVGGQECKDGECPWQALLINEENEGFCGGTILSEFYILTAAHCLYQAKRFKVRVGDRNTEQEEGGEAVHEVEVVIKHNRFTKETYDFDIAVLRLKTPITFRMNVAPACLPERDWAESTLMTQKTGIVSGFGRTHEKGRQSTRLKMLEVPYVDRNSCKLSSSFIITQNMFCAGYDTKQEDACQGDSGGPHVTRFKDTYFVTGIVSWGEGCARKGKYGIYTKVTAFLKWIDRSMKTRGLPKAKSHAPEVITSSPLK
# Chain of Factor Xa (P00742 41-179 partner limits assumed): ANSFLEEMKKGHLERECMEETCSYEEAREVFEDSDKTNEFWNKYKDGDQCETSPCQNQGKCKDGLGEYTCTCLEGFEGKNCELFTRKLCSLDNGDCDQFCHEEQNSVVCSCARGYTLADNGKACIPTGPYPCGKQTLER
Compound,Ki (Factor Xa),Ki [1]
"Nc1nccc2[nH]c(C3CCN(C(=O)c4ccc(-c5ccc(=O)[nH]c5)cc4)CC3)cc12 [Example 44, 5-{4-[4-(4-Amino-1H-pyrrolo[3,2-c]pyridin-2-yl)piperidine-1-carbonyl]phenyl}-1H-pyridin-2-one trifluoroacetate]",990 nM,–
"NC(=O)c1cccc(-c2ccc(C(=O)N3CCC(c4ccc5ccnc(N)c5c4)CC3)cc2)c1 [Example 35, 4′-[4-(1-Aminoisoquinolin-7-yl)piperidine-1-carbonyl]biphenyl-3-carboxylic acid amide trifluoroacetate]",570 nM,–
"N=C(N)c1cccc(C2=CCN(C(=O)c3ccc(-c4ccc(Br)o4)cc3)CC2)c1 [Example 10, 3-{1-[4-(5-Bromofuran-2-yl)-benzoyl]-1,2,3,6-tetrahydropyridin-4-yl}benzamidine trifluoroacetate]",34 nM,–
"N=C(N)c1cccc(C2CCN(C(=O)c3ccc(-c4ccccn4)cc3)CC2)c1 [Example 25, 3-[1-(4-Pyridin-2-ylbenzoyl)-piperidin-4-yl]benzamidine ditrifluoroacetate]",9 nM,–
"N=C(N)c1cccc(C2=CCN(C(=O)c3ccc(-c4ncccn4)cc3)CC2)c1 [Example 16, 3-[1-(4-Pyrimidin-2-ylbenzoyl)-1,2,3,6-tetrahydropyridin-4-yl]-benzamidine ditrifluoroacetate]",63 nM,–
"N=C(N)c1cccc(C2=CCN(C(=O)c3cncc(C#Cc4ccccc4)c3)CC2)c1 [Example 47, 3-[1-(5-Phenylethynyl-pyridine-3-carbonyl)-1,2,3,6-tetrahydropyridin-4-yl]-benzamidine hydrochloride]",–,183 nM
"N=C(N)c1cccc(N2CCN(C(=O)c3cncc(CCc4ccccc4)c3)CC2)c1 [Example 49, 3-[4-(5-Phenylethyl-pyridine-3-carbonyl)-piperazin-1-yl]-benzamidine di-hydrochloride]",–,1070 nM
"N=C(N)c1cccc(C2=CCN(C(=O)c3ccc(-c4ccc(Cl)s4)cc3)CC2)c1 [Example 11, 3-{1-[4-(5-Chlorothiophen-2-yl)-benzoyl]-1,2,3,6-tetrahydropyridin-4-yl}benzamidine trifluoroacetate]",688 nM,–
"N=C(N)c1cccc(C2=CCN(C(=O)c3ccc(-c4cccnc4)cc3)CC2)c1 [Example 8, 3-[1-(4-Pyridin-3-yl-benzoyl)-1,2,3,6-tetrahydropyridin-4-yl]benzamidine ditrifluoroacetate]",5 nM,–
"Nc1nccc2ccc(C3=CCN(C(=O)c4ccc(-c5ccc(=O)[nH]c5)cc4)CC3)cc12 [Example 39, 5-{4-[4-(1-Aminoisoquinolin-7-yl)-3,6-dihydro-2H-pyridine-1-carbonyl]phenyl}-1H-pyridin-2-one trifluoroacetate]",140 nM,–
